Experiments:
[1] = target: Platelet-derived growth factor receptor beta (Homo sapiens) (UniProt P09619); details: Compound concentration 1000.0 nM
[2] = target: Mitogen-activated protein kinase 14 (Homo sapiens) (UniProt Q16539); details: Compound concentration 1000.0 nM
[3] = target: Phosphatidylinositol 5-phosphate 4-kinase type-2 beta (Homo sapiens) (UniProt P78356); details: Compound concentration 1000.0 nM
[4] = target: Interleukin-1 receptor-associated kinase 4 (Homo sapiens) (UniProt Q9NWZ3); details: Compound concentration 1000.0 nM
[5] = target: Serine/threonine-protein kinase 17B (Homo sapiens) (UniProt O94768); details: Compound concentration 1000.0 nM
[6] = target: Tyrosine-protein kinase Fer (Homo sapiens) (UniProt P16591); details: Compound concentration 1000.0 nM
[7] = target: Serine/threonine-protein kinase SBK1 (Homo sapiens) (UniProt Q52WX2); details: Compound concentration 1000.0 nM
[8] = target: Interleukin-1 receptor-associated kinase 1 (Homo sapiens) (UniProt P51617); details: Compound concentration 1000.0 nM
[9] = test system: Tyrosine-protein kinase ABL1 (Homo sapiens), P00519 [Y253F]; details: Compound concentration 1000.0 nM
[10] = target: STE20-like serine/threonine-protein kinase (Homo sapiens) (UniProt Q9H2G2); details: Compound concentration 1000.0 nM
[11] = target: Serine/threonine-protein kinase ICK (Homo sapiens) (UniProt Q9UPZ9); details: Compound concentration 1000.0 nM
[12] = target: Dual specificity tyrosine-phosphorylation-regulated kinase 1A (Homo sapiens) (UniProt Q13627); details: Compound concentration 1000.0 nM
[13] = target: Serine/threonine-protein kinase PAK 3 (Homo sapiens) (UniProt O75914); details: Compound concentration 1000.0 nM
[14] = target: Serine/threonine-protein kinase pim-2 (Homo sapiens) (UniProt Q9P1W9); details: Compound concentration 1000.0 nM
[15] = target: Serine/threonine-protein kinase Nek7 (Homo sapiens) (UniProt Q8TDX7); details: Compound concentration 1000.0 nM
[16] = target: Serine/threonine-protein kinase 33 (Homo sapiens) (UniProt Q9BYT3); details: Compound concentration 1000.0 nM
[17] = target: Ephrin type-A receptor 8 (Homo sapiens) (UniProt P29322); details: Compound concentration 1000.0 nM
[18] = target: T1, 5-hydroxytryptamine receptor 3A (Homo sapiens) (UniProt P46098); details: Compound concentration 10.0 uM
T1 sequence (whole entry): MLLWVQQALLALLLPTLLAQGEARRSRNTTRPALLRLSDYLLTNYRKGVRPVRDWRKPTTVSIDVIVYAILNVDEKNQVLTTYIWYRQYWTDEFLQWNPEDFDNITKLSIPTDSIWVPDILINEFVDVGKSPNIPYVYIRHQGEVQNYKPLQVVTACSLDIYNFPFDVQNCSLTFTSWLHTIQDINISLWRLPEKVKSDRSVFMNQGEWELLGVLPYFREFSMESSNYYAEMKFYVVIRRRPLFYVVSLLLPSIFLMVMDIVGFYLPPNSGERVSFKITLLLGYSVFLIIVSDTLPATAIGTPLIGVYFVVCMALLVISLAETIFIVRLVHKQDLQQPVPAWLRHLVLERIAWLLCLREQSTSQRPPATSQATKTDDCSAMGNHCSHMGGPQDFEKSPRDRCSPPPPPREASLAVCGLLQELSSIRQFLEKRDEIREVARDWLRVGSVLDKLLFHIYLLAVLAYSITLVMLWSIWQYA

[19] = target: Serine/threonine-protein kinase ULK2 (Homo sapiens) (UniProt Q8IYT8); details: Compound concentration 1000.0 nM
[20] = target: Serine/threonine-protein kinase 35 (Homo sapiens) (UniProt Q8TDR2); details: Compound concentration 1000.0 nM
[21] = target: Ephrin type-B receptor 1 (Homo sapiens) (UniProt P54762); details: Compound concentration 1000.0 nM
[22] = target: High affinity nerve growth factor receptor (Homo sapiens) (UniProt P04629); details: Compound concentration 1000.0 nM
[23] = target: Atypical kinase COQ8A, mitochondrial (Homo sapiens) (UniProt Q8NI60); details: Compound concentration 1000.0 nM
[24] = target: Phosphatidylinositol 3-kinase catalytic subunit type 3 (Homo sapiens) (UniProt Q8NEB9); details: Compound concentration 1000.0 nM
Rattus norvegicus = organism: Rattus norvegicus; details: Compound concentration 10.0 uM
[25] = target: Calcium-dependent protein kinase 1 (Plasmodium falciparum) (UniProt P62344); details: Compound concentration 1000.0 nM
[26] = target: Histamine H3 receptor (Homo sapiens) (UniProt Q9Y5N1); details: Compound concentration 10.0 uM
[27] = target: G protein-coupled receptor kinase 3 (Homo sapiens) (UniProt P35626); details: Compound concentration 1000.0 nM
[28] = target: NT-3 growth factor receptor (Homo sapiens) (UniProt Q16288); details: Compound concentration 1000.0 nM
[29] = target: Activin receptor type-2B (Homo sapiens) (UniProt Q13705); details: Compound concentration 1000.0 nM
[30] = target: Serine/threonine-protein kinase TBK1 (Homo sapiens) (UniProt Q9UHD2); details: Compound concentration 1000.0 nM
[31] = target: LIM domain kinase 2 (Homo sapiens) (UniProt P53671); details: Compound concentration 1000.0 nM
[32] = target: Myotonin-protein kinase (Homo sapiens) (UniProt Q09013); details: Compound concentration 1000.0 nM
[33] = target: Alpha-2C adrenergic receptor (Homo sapiens) (UniProt P18825); details: Compound concentration 10.0 uM
[34] = target: MAP kinase-activated protein kinase 5 (Homo sapiens) (UniProt Q8IW41); details: Compound concentration 1000.0 nM
[35] = target: Tyrosine-protein kinase Lyn (Homo sapiens) (UniProt P07948); details: Compound concentration 1000.0 nM
[36] = target: Serine/threonine-protein kinase WNK1 (Homo sapiens) (UniProt Q9H4A3); details: Compound concentration 1000.0 nM
[37] = target: Calcium/calmodulin-dependent protein kinase type IV (Homo sapiens) (UniProt Q16566); details: Compound concentration 1000.0 nM
[38] = target: D(1A) dopamine receptor (Homo sapiens) (UniProt P21728); details: Compound concentration 10.0 uM
Chain of D(1A) dopamine receptor (Homo sapiens) (P21728 whole entry): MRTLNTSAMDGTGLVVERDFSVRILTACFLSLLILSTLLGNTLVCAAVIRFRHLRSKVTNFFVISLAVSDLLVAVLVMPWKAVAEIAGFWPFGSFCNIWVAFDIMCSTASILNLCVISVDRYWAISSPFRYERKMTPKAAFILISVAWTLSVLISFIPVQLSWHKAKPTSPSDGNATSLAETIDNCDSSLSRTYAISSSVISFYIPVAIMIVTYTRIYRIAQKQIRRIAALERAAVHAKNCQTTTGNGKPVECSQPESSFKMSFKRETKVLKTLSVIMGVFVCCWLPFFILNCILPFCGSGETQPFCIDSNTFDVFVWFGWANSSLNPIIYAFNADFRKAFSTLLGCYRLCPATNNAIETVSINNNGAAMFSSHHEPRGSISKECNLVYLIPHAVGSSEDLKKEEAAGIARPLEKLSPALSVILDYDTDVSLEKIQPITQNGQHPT

Chain of Alpha-2C adrenergic receptor (Homo sapiens) (P18825 whole entry): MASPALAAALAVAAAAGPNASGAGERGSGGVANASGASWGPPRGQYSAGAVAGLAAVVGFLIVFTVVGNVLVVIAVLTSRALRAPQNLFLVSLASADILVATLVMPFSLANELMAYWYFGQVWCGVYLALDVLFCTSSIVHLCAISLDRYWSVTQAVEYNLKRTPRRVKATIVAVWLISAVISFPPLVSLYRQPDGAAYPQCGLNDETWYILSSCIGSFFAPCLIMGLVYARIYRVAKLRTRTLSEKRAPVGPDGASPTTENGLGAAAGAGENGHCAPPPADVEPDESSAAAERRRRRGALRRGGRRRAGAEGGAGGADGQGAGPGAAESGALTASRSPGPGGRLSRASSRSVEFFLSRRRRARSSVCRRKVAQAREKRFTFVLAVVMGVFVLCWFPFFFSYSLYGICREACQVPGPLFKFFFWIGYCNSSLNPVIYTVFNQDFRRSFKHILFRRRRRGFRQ
Chain of Serine/threonine-protein kinase 35 (Homo sapiens) (Q8TDR2 whole entry): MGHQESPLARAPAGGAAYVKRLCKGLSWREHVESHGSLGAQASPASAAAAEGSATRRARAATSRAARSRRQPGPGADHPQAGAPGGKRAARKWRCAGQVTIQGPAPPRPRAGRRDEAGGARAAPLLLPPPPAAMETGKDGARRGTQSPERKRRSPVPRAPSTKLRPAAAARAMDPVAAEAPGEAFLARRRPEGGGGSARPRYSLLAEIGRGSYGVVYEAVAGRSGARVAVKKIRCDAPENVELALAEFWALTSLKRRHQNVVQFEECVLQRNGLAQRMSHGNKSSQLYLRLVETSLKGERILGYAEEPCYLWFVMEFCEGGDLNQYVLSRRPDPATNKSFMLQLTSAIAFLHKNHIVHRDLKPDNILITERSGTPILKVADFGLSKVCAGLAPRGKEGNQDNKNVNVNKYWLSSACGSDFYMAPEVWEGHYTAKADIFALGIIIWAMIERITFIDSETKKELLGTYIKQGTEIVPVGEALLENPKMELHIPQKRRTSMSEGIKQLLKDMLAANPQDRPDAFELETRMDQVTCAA
Chain of Serine/threonine-protein kinase ICK (Homo sapiens) (Q9UPZ9 whole entry): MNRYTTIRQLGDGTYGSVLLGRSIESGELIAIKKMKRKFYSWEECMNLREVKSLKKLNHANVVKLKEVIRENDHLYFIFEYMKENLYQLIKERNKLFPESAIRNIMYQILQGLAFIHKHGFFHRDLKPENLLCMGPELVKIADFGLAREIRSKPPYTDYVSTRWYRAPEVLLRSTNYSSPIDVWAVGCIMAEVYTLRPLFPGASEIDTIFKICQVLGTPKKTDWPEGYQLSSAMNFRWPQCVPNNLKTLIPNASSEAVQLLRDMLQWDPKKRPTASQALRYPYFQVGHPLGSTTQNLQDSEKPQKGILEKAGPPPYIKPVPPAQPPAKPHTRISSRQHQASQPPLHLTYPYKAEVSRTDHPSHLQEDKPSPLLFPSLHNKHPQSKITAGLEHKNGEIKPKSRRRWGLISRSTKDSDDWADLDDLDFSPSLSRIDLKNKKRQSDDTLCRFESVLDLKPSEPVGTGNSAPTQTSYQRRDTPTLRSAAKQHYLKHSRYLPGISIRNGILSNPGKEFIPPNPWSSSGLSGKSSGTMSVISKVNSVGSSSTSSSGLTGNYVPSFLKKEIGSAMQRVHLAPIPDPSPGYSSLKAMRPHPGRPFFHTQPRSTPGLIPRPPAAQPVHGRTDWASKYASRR
Chain of Serine/threonine-protein kinase ULK2 (Homo sapiens) (Q8IYT8 whole entry): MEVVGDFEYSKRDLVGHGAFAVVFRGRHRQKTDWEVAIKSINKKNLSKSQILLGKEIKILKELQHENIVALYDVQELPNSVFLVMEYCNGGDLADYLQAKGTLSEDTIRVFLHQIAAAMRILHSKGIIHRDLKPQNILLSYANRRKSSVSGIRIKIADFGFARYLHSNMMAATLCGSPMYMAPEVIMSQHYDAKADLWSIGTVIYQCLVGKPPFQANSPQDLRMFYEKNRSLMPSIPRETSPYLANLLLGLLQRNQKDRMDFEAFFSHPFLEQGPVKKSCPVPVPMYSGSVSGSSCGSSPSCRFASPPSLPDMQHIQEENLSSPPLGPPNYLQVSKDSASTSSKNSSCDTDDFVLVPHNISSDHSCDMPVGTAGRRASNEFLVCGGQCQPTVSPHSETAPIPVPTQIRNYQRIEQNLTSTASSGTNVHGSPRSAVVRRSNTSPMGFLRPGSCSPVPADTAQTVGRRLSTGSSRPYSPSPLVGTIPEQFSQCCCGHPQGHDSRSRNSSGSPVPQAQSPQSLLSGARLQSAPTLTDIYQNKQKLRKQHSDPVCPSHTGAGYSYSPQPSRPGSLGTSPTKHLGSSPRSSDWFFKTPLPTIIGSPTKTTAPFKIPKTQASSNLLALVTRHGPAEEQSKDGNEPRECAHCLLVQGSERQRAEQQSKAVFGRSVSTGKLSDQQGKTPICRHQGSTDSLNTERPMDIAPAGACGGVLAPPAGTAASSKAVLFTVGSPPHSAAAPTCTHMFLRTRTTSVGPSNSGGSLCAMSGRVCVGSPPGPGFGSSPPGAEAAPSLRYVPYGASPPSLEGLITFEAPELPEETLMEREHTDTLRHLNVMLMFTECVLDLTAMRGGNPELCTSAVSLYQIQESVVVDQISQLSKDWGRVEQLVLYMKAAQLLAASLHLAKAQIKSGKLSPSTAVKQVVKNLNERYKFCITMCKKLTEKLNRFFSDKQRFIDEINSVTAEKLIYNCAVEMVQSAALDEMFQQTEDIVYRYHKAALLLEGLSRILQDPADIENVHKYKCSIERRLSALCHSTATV
Chain of Ephrin type-B receptor 1 (Homo sapiens) (P54762 whole entry): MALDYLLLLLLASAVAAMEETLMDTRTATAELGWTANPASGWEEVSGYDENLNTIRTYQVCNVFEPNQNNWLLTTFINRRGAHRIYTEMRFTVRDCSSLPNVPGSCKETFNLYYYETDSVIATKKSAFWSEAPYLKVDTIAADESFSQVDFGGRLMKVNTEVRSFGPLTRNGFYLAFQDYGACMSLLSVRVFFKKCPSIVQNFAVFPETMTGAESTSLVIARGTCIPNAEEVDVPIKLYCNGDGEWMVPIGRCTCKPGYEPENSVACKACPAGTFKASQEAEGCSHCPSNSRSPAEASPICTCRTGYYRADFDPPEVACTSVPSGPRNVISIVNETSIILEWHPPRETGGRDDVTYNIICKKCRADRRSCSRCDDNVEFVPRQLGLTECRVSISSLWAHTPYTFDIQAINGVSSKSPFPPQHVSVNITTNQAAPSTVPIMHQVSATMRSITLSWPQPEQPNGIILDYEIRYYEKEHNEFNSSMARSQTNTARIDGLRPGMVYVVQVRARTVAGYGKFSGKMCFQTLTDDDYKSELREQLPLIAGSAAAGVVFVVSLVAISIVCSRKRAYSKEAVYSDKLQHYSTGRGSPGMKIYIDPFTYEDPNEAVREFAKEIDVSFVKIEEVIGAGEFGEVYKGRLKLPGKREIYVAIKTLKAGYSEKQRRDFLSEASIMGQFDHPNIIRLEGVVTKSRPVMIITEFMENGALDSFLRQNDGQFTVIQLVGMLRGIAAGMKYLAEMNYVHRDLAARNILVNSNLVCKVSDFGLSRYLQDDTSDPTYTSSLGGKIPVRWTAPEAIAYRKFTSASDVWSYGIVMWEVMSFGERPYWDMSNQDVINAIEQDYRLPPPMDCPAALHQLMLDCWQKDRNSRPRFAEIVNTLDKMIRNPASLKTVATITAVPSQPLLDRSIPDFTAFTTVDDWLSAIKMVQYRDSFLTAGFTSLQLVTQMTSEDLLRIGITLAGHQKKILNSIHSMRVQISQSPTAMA
Chain of Histamine H3 receptor (Homo sapiens) (Q9Y5N1 whole entry): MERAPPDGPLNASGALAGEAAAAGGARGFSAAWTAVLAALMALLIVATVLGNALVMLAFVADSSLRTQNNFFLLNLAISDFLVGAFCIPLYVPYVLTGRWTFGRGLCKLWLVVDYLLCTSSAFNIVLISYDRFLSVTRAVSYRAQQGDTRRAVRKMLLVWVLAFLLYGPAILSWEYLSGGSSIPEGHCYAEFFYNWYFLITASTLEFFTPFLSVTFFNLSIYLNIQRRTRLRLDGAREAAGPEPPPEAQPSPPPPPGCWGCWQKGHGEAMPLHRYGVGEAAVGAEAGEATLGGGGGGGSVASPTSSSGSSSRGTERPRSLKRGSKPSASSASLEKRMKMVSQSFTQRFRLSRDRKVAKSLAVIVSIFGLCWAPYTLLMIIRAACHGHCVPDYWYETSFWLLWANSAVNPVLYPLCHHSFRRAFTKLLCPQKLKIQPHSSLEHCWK
Chain of Tyrosine-protein kinase Lyn (Homo sapiens) (P07948 2-512 limits assumed): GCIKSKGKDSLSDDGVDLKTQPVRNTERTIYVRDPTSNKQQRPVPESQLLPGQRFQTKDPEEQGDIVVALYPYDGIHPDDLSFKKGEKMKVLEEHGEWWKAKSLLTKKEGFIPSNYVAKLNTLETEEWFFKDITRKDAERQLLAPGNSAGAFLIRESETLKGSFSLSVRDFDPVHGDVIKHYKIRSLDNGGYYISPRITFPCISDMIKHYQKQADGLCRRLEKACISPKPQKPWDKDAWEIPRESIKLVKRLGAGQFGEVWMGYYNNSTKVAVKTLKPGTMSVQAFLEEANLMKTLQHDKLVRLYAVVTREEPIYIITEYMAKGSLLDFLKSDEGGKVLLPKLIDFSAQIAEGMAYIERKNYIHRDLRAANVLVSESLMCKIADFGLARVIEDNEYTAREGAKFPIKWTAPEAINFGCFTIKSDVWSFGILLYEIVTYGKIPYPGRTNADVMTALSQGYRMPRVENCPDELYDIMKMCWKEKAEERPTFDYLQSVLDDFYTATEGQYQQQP

Compound	residual activity [1] [%]	residual activity [2] [%]	residual activity [3] [%]	residual activity [4] [%]	residual activity [5] [%]	residual activity [6] [%]	residual activity [7] [%]	residual activity [8] [%]	residual activity [9] [%]	residual activity [10] [%]	residual activity [11] [%]	residual activity [12] [%]	residual activity [13] [%]	residual activity [14] [%]	residual activity [15] [%]	residual activity [16] [%]	residual activity [17] [%]	inhibition [18] [%]	residual activity [19] [%]	residual activity [20] [%]	other results
O=C(Nc1cccnn1)N1CC(C/C=C/c2cncc(Oc3ccc(C(F)(F)F)cn3)n2)C1	81	100	96	100	100	100	89	66	92	100	80	75	100	100	100	100	100	-0.28	73	94	residual activity [21]: 100%; residual activity [22]: 82%; residual activity [23]: 96%; residual activity [24]: 88%; inhibition (Rattus norvegicus): 25.6%; residual activity [25]: 99%; inhibition [26]: 17.3%; residual activity [27]: 100%; residual activity [28]: 85%; residual activity [29]: 98%; residual activity [30]: 72%; residual activity [31]: 95%; residual activity [32]: 100%; inhibition [33]: 0.34%; residual activity [34]: 76%; residual activity [35]: 97%; residual activity [36]: 100%; residual activity [37]: 100%; inhibition [38]: 1.14%
O=C(Nc1cccnn1)N1CCC(=Cc2cccc(Oc3ccc(C(F)(F)F)cn3)c2)CC1	97	100	83	97	100	74	100	100	100	74	91	100	73	97	100	100	100	10.7	100	100	residual activity [21]: 100%; residual activity [22]: 100%; residual activity [23]: 78%; residual activity [24]: 100%; inhibition (Rattus norvegicus): 59.6%; residual activity [25]: 93%; inhibition [26]: 8.73%; residual activity [27]: 100%; residual activity [28]: 100%; residual activity [29]: 98%; residual activity [30]: 100%; residual activity [31]: 88%; residual activity [32]: 100%; inhibition [33]: 79.3%; residual activity [34]: 100%; residual activity [35]: 100%; residual activity [36]: 100%; residual activity [37]: 63%; inhibition [38]: -3.23%
